Where two headings read alike, the source gives them in different places. No end group written: not given here.
How the values were obtained:
HLA-A*2301 = HLA-A*2301 (Homo sapiens, UniProt P04439, D101N/D140Y/D185E/E176V/E190D/F33S/G103R/G107R/H175R/I119L/I121M/I306V/K168Q/K335N/L105A/L300P/N151K/N90K/P307H/Q86E/Q94H/R106L/R138H/R89G/T104I/T345S/V100E/W191G/Y123F); test: biochemical; format: binding
HLA-A*2902 = HLA-A*2902 (Homo sapiens, UniProt P04439, A270S/D101N/D185E/E176V/E277Q/E87Q/F33T/G231S/H175R/I121M/I218V/I322F/K168Q/L300P/L318F/M331R/P208A/P217A/Q86L/T323A/T345S/V100A/V358M); test: MHC molecular binding / Capture assay, IC50: A*2902
HLA-A*3002 = HLA-A*3002 (Homo sapiens, UniProt P04439, D101N/D140H/D185E/E176R/F33S/G80R/H175R/K168Q/Q94H/R138E/R41S/V100E); test: biochemical; format: binding
HLA-A*2402 = HLA-A*2402 (Homo sapiens, UniProt P04439, D101N/D140Y/D185E/E176V/E190D/F33S/G103R/G107R/I119L/I121M/I306V/K335N/L105A/L180Q/L300P/N151K/N90K/Q86E/Q94H/R106L/R138H/R89G/T104I/T345S/V100E/W191G/Y123F); test: MHC molecular binding / Capture assay, IC50: A*2402
HLA-B*4001 = HLA-B*4001 (Homo sapiens, UniProt P01889, A65T/A93T/A95T/D138N/D98Y/E176V/E69K/N87E/Q56L/Q94N/R180L/S121R/S35A/S48T/T167S/V36M/W171L/Y33H/Y91S); test: biochemical; format: binding; settings: B*4001
HLA-B*4501 = HLA-B*4501 (Homo sapiens, UniProt P01889, A329T/A65T/A93T/A95T/C349S/D138N/D201E/D98Y/E176V/E187L/E204Q/E69K/H137Y/K202T/L119W/N87E/Q56L/Q94N/R155S/R180D/S121R/S35A/S48T/V127L/V306I/V36M/W191S/Y140L/Y33H/Y91S); test: biochemical; format: binding; settings: B*4501

Row | Sequence | IC50 (HLA-A*2301) [nM] | IC50 (HLA-A*2902) [nM] | IC50 (HLA-A*3002) [nM] | IC50 (HLA-A*2402) [nM] | also measured
1 | KYLFTDLRI | 1.9 | 78600 | 339 | 108 | –
2 | KYSKSSIVGW | 491 | > 69400 | > 34500 | 4060 | –
3 | LFYSKVRKF | 277 | 11200 | 632 | 2010 | –
4 | LYGDTLEQTF | 24 | 40900 | 42000 | 91 | –
5 | LYPEPTDLF | 17 | 1150 | 30700 | 38 | –
6 | LYVVYRDSI | – | 148000 | 3480 | 982 | –
7 | LYVYHTQGY | 6090 | 216 | 258 | 7140 | –
8 | LYVYHTQGYF | 23 | 1700 | 1220 | 38 | –
9 | LYYLFNQHI | 1.4 | – | – | 33 | IC50 (HLA-A*2902; A*2902 binding affinity (IC50)): 20100 nM; IC50 (HLA-A*3002; A*3002 binding affinity (IC50)): 11000 nM
10 | LYYSKVRKY | 2740 | 1450 | 28 | 21900 | –
11 | MFVPKYFEL | 11 | – | – | 266 | IC50 (HLA-A*2902; A*2902 binding affinity (IC50)): 2560 nM; IC50 (HLA-A*3002; A*3002 binding affinity (IC50)): 8560 nM
12 | NYACTELKL | 131 | 77800 | 49100 | 1740 | –
13 | NYSLYGDTF | – | 20900 | 64 | 6.4 | –
14 | NYSVYGNTF | 29 | 9120 | 2560 | 28 | –
15 | PYGVCLMCLRF | – | – | – | – | IC50 (HLA-A*2301; read-out: A*2301 binding affinity (IC50)): 100 nM; IC50 (HLA-A*2402; read-out: A*2402 binding affinity (IC50)): 380 nM
16 | RFHSIAGQF | 2.9 | 481 | 1.2 | 28 | –
17 | RFLSKISEF | 2.5 | 40100 | 201 | 58 | –

Row | Sequence | IC50 (HLA-A*2301) [nM] | IC50 (HLA-A*2902) [nM] | IC50 (HLA-A*3002) [nM] | IC50 (HLA-A*2402) [nM] | also measured
18 | RFPLTFGF | 124 | 12800 | 13500 | 178 | –
19 | RYHNISGRW | – | 105000 | 13 | 47 | –
20 | RYHSIAGQY | 1900 | 544 | 1.4 | 3170 | –
21 | RYPLTFGF | 6.4 | 9700 | 6330 | 3.3 | –
22 | RYPLTFGW | 3840 | – | – | 127 | IC50 (HLA-A*2902; A*2902 binding affinity (IC50)): 13900 nM
23 | SYKSSKRDKF | 797 | – | – | 256 | IC50 (HLA-A*2902; Binding affinity to A*2902 (expressed as an IC50)): 12600 nM; IC50 (HLA-A*3002; Binding affinity to A*3002 (expressed as an IC50)): 88 nM
24 | TENLWVTVY | – | – | – | – | IC50 (HLA-B*4001): 14000 nM; IC50 (HLA-B*4501): 5300 nM
25 | TFGWCFKF | 462 | 4450 | > 10100 | 3420 | –
26 | VFADLRIVF | 2.5 | 87 | 24100 | 23 | –
27 | VYCKTVLEF | 4.7 | 610 | 1140 | 50 | –
28 | VYDFVFADF | 2.2 | 1230 | 3960 | 9.9 | –
29 | VYEFAFKDLF | 1.7 | 1970 | 2040 | 15 | –
30 | VYNFACTEF | 2.1 | 774 | 784 | 14 | –
31 | VYREGNPFGF | 91 | 11100 | 21900 | 197 | –
32 | VYRHCEYIL | 64 | – | – | 2200 | IC50 (HLA-A*2902; A*2902 binding affinity (IC50)): 118000 nM; IC50 (HLA-A*3002; A*3002 binding affinity (IC50)): 3330 nM
33 | VYYNILIVL | 52 | – | – | 265 | IC50 (HLA-A*2902; A*2902 binding affinity (IC50)): > 192000 nM
34 | YYNKSTEKL | – | – | – | 109 | IC50 (HLA-A*2902; A*2902 binding affinity (IC50)): 55600 nM; IC50 (HLA-A*3002; A*3002 binding affinity (IC50)): 21800 nM

Reference: patent US20060079453A1, “Hla binding peptides and their uses” (priority 2002, published 2006)
